In BindingDB's records for doi:10.1016/S0960-894X(97)10014-2 (1997) one finds IC50 data, which are given here for 13 compounds.

The first assay is described as follows: Inhibition of ADP induced platelet aggregation in human platelet-rich plasma (PRP).
As to `N=C(N)c1ccc(COc2ccc3c(c2)CCN(CCC(=O)O)C3=O)cc1` [3-[6-(4-Carbamimidoyl-benzyloxy)-1-oxo-3,4-dihydro-1H-isoquinolin-2-yl]-propionic acid], the IC50 stood at 420 nM.

A further assay is described as follows: Inhibition of ADP induced platelet aggregation in human platelet-rich plasma (PRP).
As for `COc1ccc(C(CC(=O)O)N2CCc3cc(OCc4ccc(C(=N)N)cc4)ccc3C2=O)cc1` (stereo not drawn) [3-[6-(4-Carbamimidoyl-benzyloxy)-1-oxo-3,4-dihydro-1H-isoquinolin-2-yl]-3-(4-methoxy-phenyl)-propionic acid], the concentration for half-maximal inhibition (IC50) stood at 260 nM.
Still for that read-out and setting: the value for `N=C(N)c1ccc(COc2ccc3c(c2)CCN(C(CC(=O)O)c2ccccc2)C3=O)cc1` (stereo not drawn) [3-[6-(4-Carbamimidoyl-benzyloxy)-1-oxo-3,4-dihydro-1H-isoquinolin-2-yl]-3-phenyl-propionic acid] was 200 nM.
For `COCCOCC(CC(=O)O)N1CCc2cc(OCc3ccc(C(=N)N)cc3)ccc2C1=O` (stereo not drawn) [3-[6-(4-Carbamimidoyl-benzyloxy)-1-oxo-3,4-dihydro-1H-isoquinolin-2-yl]-4-(2-methoxy-ethoxy)-butyric acid], it took 680 nM to reach half-maximal inhibition (IC50).
`CCOCCCC(CC(=O)O)N1CCc2cc(OCc3ccc(C(=N)N)cc3)ccc2C1=O` (stereo not drawn) [3-[6-(4-Carbamimidoyl-benzyloxy)-1-oxo-3,4-dihydro-1H-isoquinolin-2-yl]-6-ethoxy-hexanoic acid] had a half-inhibitory concentration (IC50) of 470 nM.
In turn, `COCCCC(CC(=O)O)N1CCc2cc(OCc3ccc(C(=N)N)cc3)ccc2C1=O` (stereo not drawn) [3-[6-(4-Carbamimidoyl-benzyloxy)-1-oxo-3,4-dihydro-1H-isoquinolin-2-yl]-6-methoxy-hexanoic acid] returned an IC50 of 600 nM.
The same measure, in the same setting: as for `CCCCC(CC(=O)O)N1CCc2cc(OCc3ccc(C(=N)N)cc3)ccc2C1=O` (stereo not drawn) [3-[6-(4-Carbamimidoyl-benzyloxy)-1-oxo-3,4-dihydro-1H-isoquinolin-2-yl]-heptanoic acid], the figure is 600 nM; as for `CCCC(CC(=O)O)N1CCc2cc(OCc3ccc(C(=N)N)cc3)ccc2C1=O` (stereo not drawn) [3-[6-(4-Carbamimidoyl-benzyloxy)-1-oxo-3,4-dihydro-1H-isoquinolin-2-yl]-hexanoic acid], 230 nM.
Still for that read-out and setting: the value for `CCCCCCC(CC(=O)O)N1CCc2cc(OCc3ccc(C(=N)N)cc3)ccc2C1=O` (stereo not drawn) [3-[6-(4-Carbamimidoyl-benzyloxy)-1-oxo-3,4-dihydro-1H-isoquinolin-2-yl]-nonanoic acid] was 3000 nM.
On the same count and under the same terms, the value for `CCCCCC(CC(=O)O)N1CCc2cc(OCc3ccc(C(=N)N)cc3)ccc2C1=O` (stereo not drawn) [3-[6-(4-Carbamimidoyl-benzyloxy)-1-oxo-3,4-dihydro-1H-isoquinolin-2-yl]-octanoic acid] was 570 nM; that for `CCC(CC(=O)O)N1CCc2cc(OCc3ccc(C(=N)N)cc3)ccc2C1=O` (stereo not drawn) [3-[6-(4-Carbamimidoyl-benzyloxy)-1-oxo-3,4-dihydro-1H-isoquinolin-2-yl]-pentanoic acid] was 300 nM; that for `COC(=O)c1ccc(C(CC(=O)O)N2CCc3cc(OCc4ccc(C(=N)N)cc4)ccc3C2=O)cc1` (stereo not drawn) [4-{1-[6-(4-Carbamimidoyl-benzyloxy)-1-oxo-3,4-dihydro-1H-isoquinolin-2-yl]-2-carboxy-ethyl}-benzoic acid methyl ester] was 220 nM.
`N=C(N)c1ccc(COc2ccc3c(c2)CCN(CC(=O)O)C3=O)cc1` [[6-(4-Carbamimidoyl-benzyloxy)-1-oxo-3,4-dihydro-1H-isoquinolin-2-yl]-acetic acid] showed an IC50 of 30000 nM.

One may read the IC50 as the concentration that inhibits the measured activity by half. The low end stands for higher potency, the high end for lower potency.
